Where a name gives a salt, the structure may show the parent alone.
Target: T1, human protease activated receptor 1 (PAR1) (Homo sapiens, UniProt P25116)
T1 construct: the cell stably expresses the endogenous human PAR1 receptor and the endogenous purinergic receptor P2Y2; endogenous in cells; host or cells: HEK293-derived recombinant cell line constitutively expressing mitochondrial aequorin
T1 sequence (P25116 22-425): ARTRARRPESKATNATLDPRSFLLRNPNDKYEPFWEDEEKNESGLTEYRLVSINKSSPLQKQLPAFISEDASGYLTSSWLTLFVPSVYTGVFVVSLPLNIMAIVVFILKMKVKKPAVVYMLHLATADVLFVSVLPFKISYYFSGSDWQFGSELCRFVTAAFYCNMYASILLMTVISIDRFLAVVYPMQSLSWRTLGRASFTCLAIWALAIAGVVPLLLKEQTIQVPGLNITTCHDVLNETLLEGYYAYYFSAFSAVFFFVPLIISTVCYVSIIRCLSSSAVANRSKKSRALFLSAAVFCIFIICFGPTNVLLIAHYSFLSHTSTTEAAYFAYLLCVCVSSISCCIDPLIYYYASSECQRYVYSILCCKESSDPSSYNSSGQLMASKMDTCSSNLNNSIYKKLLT
Test: Cellular functional in vitro test (aequorin luminescence, PAR1 test cell)
Format: cell-based
Settings: recombinant HEK293-derived cell line expressing aequorin; PAR1 agonist added at its EC50 5 minutes after test substance
Excerpt: 1.a) Cellular Functional In vitro Test
A recombinant cell line is used to identify […] of the human protease activated receptor 1 (PAR1) and to quantify the activity of the substances described herein. The cell is originally derived from a human embryonal kidney cell (HEK293; ATCC: American Type Culture Collection, Manassas, Va. 20108, USA). The test cell line constitutively expresses a modified form of the calcium-sensitive photoprotein aequorin which, after reconstitution with the cofactor coelenterazine, emits light when the free calcium concentration in the inner mitochondrial compartment is increased (Rizzuto R, Simpson A W, Brini M, Pozzan T.; Nature 1992, 358, 325-327). Additionally, the cell stably expresses the endogenous human PAR1 receptor and the endogenous purinergic receptor P2Y2. The resulting PAR1 test cell responds to stimulation of the endogenous PAR1 or P2Y2 receptor with an intracellular release of calcium ions, which can be quantified through resulting aequorin luminescence with a suitable luminometer (Milligan G, Marshall F, Rees S, Trends in Pharmacological Sciences 1996, 17, 235-237).
For testing the substance specificity, its effect after activation of the endogenous PAR1 receptor is compared to the effect after activation of the endogenous purinergic P2Y2 receptor which utilizes the same intracellular signal path.
Test procedure: The cells are plated out two days (48 hours) before the test in culture medium (DMEM F12, supplemented with 10% FCS, 2 mM glutamine, 20 mM HEPES, 1.4 mM pyruvate, 0.1 mg/ml gentamycin, 0.15% Na bicarbonate; BioWhittaker Cat.# BE04-687Q; B-4800 Verviers, Belgium) in 384-well microtitre plates and kept in a cell incubator (96% atmospheric humidity, 5% V/V CO2, 37° C.). On the day of the test, the culture medium is replaced by a tyrode solution (in mM: 140NaCl, 5l KCl, 1MgCl2, 2CaCl2, 20 glucose, 20 HEPES), which additionally contains the cofactor coelenterazine (25 μM) and glutathione (4 mM), and the microtitre plate is then incubated for a further 3-4 hours. The test substances are then pipetted onto the microtitre plate, and 5 minutes after the transfer of the test substances into the wells of the microtitre plate the plate is transferred into the luminometer, a PAR1 agonist concentration which corresponds to the EC50 is added and the resulting light signal is immediately measured in the luminometer. To distinguish an antagonist substance action from a toxic action, the endogenous purinergic receptor is immediately subsequently activated with agonist (ATP, final concentration 10 μM) and the resulting light signal is measured.

Row | Compound | IC50
1 | CCc1ccc(C2CC(c3nc(C(C)(C)O)no3)CN(C(=O)N3CCC(O)CC3)C2)cc1 (racemic) [Example 187, {3-(4-Ethylphenyl)-5-[3-(2-hydroxypropan-2-yl)-1,2,4-oxadiazol-5-yl]piperidin-1-yl}(4-hydroxy-piperidin-1-yl)methanone] | 53.4 nM
2 | Cc1ccc(C2CC(c3nc(C(C)C)no3)CN(C(=O)N3CCC(C#N)CC3)C2)cc1C (racemic) [Example 197, 1-({3-(3,4-Dimethylphenyl)-5-[3-(propan-2-yl)-1,2,4-oxadiazol-5-yl]piperidin-1-yl}carbonyl)-piperidine-4-carbonitrile] | 77.5 nM
3 | CC(C)(O)Cc1noc(C2CC(c3ccc(C(F)(F)F)cc3)CN(C(=O)N3CCC(C#N)CC3)C2)n1 (racemic) [Example 212, 1-({3-[3-(2-Hydroxy-2-methylpropyl)-1,2,4-oxadiazol-5-yl]-5-[4-(trifluoromethyl)phenyl]-piperidin-1-yl}carbonyl)piperidine-4-carbonitrile] | 142 nM
4 | Cc1cc(C2CC(c3nc(-c4cccc(F)c4)no3)CN(C(=O)N3CCC(O)CC3)C2)ccc1OC(F)(F)F (racemic) [Example 229, {3-[3-(3-Fluorophenyl)-1,2,4-oxadiazol-5-yl]-5-[3-methyl-4-(trifluoromethoxy)phenyl]piperidin-1-yl}(4-hydroxypiperidin-1-yl)methanone] | 1.72 nM
5 | Cc1ccc(C2CC(c3nc(-c4cccc(F)c4)no3)CN(C(=O)N3CCC(O)CC3)C2)cc1C (racemic) [Example 232, {3-(3,4-Dimethylphenyl)-5-[3-(3-fluorophenyl)-1,2,4-oxadiazol-5-yl]piperidin-1-yl}(4-hydroxy-piperidin-1-yl)methanone] | 6.44 nM
6 | Cc1cc(-c2noc(C3CC(c4ccc(OC(F)(F)F)cc4)CN(C(=O)N4CCOCC4)C3)n2)no1 (racemic) [Example 249, {3-[3-(5-Methylisoxazol-3-yl)-1,2,4-oxadiazol-5-yl]-5-[4-(trifluoromethoxy)phenyl]piperidin-1-yl}(morpholin-4-yl)methanone] | 13.1 nM
7 | Cc1ccncc1-c1noc(C2CC(c3ccc(C(F)(F)F)cc3)CN(C(=O)N3CCOCC3)C2)n1 (racemic) [Example 329, {3-[3-(4-Methylpyridin-3-yl)-1,2,4-oxadiazol-5-yl]-5-[4-(trifluoromethyl)phenyl]piperidin-1-yl}-(morpholin-4-yl)methanone] | 24 nM
8 | CCSCc1csc(C2CC(c3ccc(CC)cc3)CN(C(=O)N3CCOCC3)C2)n1 (racemic) [Example 484, [3-(4-Ethylphenyl)-5-{4-[(ethylsulphanyl)methyl]-1,3-thiazol-2-yl}piperidin-1-yl](morpholin-4-yl)methanone] | 76.6 nM
9 | CC(C)(C)c1csc(C2CC(c3ccc(OC(F)(F)F)cc3)CN(C(=O)N3CCOCC3)C2)n1 (racemic) [Example 487, {3-(4-tert-Butyl-1,3-thiazol-2-yl)-5-[4-(trifluoromethoxy)phenyl]piperidin-1-yl}(morpholin-4-yl)-methanone] | 107 nM
10 | CC(C)c1nnc(C2CC(c3ccc(OC(F)(F)F)cc3)CN(C(=O)N3CCOCC3)C2)s1 (racemic) [Example 494, Morpholin-4-yl{3-[5-(propan-2-yl)-1,3,4-thiadiazol-2-yl]-5-[4-(trifluoromethoxy)phenyl]piperidin-1-yl}methanone] | 5.67 nM
11 | O=C(N1CCOCC1)N1CC(c2ccc(OC(F)(F)F)cc2)CC(c2nc(C3CCC3)no2)C1 (racemic) [Example 513, {3-(3-Cyclobutyl-1,2,4-oxadiazol-5-yl)-5-[4-(trifluoromethoxy)phenyl]piperidin-1-yl}(morpholin-4-yl)methanone] | 5.16 nM

The remaining compounds from weak to strong by IC50, led by results:

Row | IC50 | Compound
12 | 25.1 nM | CCc1csc(C2CC(c3ccc(OC(F)(F)F)cc3)CN(C(=O)N3CCOCC3)C2)n1 (racemic) [Example 490, {3-(4-Ethyl-1,3-thiazol-2-yl)-5-[4-(trifluoromethoxy)phenyl]piperidin-1-yl}(morpholin-4-yl)-methanone]
13 | 23.4 nM | CC(C)Cc1nnc(C2CC(c3ccc(OC(F)(F)F)cc3)CN(C(=O)N3CCOCC3)C2)o1 (racemic) [Example 474, {3-[5-(2-Methylpropyl)-1,3,4-oxadiazol-2-yl]-5-[4-(trifluoromethoxy)phenyl]piperidin-1-yl}-(morpholin-4-yl)methanone]
14 | 20.8 nM | CCc1noc(C2CC(c3ccc(OC(F)(F)F)cc3)CN(C(=O)N3CCC(C#N)CC3)C2)n1 (racemic) [Example 519, 1-({3-(3-Ethyl-1,2,4-oxadiazol-5-yl)-5-[4-(trifluoromethoxy)phenyl]piperidin-1-yl}carbonyl)-piperidine-4-carbonitrile]
15 | 18.8 nM | CN(C)Cc1nc(C2CC(c3ccc(C(F)(F)F)cc3)CN(C(=O)N3CCOCC3)C2)no1 (single isomer, unassigned) [Example 170, {3-{5-[(Dimethylamino)methyl]-1,2,4-oxadiazol-3-yl}-5-[4-(trifluoromethyl)phenyl]piperidin-1-yl}(morpholin-4-yl)methanone hydrochloride]
16 | 17.1 nM | COCCc1noc(C2CC(c3ccc(OC(F)(F)F)cc3)CN(C(=O)N3CCOCC3)C2)n1 (single isomer, unassigned) [Example 178, {3-[3-(2-Methoxyethyl)-1,2,4-oxadiazol-5-yl]-5-[4-(trifluoromethoxy)phenyl]piperidin-1-yl}-(morpholin-4-yl)methanone]
17 | 15.4 nM | Cc1ccc(C2CC(c3nc(C(C)C)no3)CN(C(=O)N3CCC(O)CC3)C2)cc1C (racemic) [Example 234, {3-(3,4-Dimethylphenyl)-5-[3-(propan-2-yl)-1,2,4-oxadiazol-5-yl]piperidin-1-yl}(4-hydroxy-piperidin-1-yl)methanone]
18 | 14.9 nM | CC(C)(C)c1noc(C2CC(c3ccc(C(F)(F)F)cc3)CN(C(=O)N3CCC(C#N)CC3)C2)n1 (racemic) [Example 283, 1-({3-(3-tert-Butyl-1,2,4-oxadiazol-5-yl)-5-[4-(trifluoromethyl)phenyl]piperidin-1-yl}carbonyl)-piperidine-4-carbonitrile]
19 | 11 nM | CC(C)c1noc(C2CC(c3ccc(OC(F)(F)F)cc3)CN(C(=O)N3CCC(C#N)CC3)C2)n1 (racemic) [Example 520, 1-({3-[3-(Propan-2-yl)-1,2,4-oxadiazol-5-yl]-5-[4-(trifluoromethoxy)phenyl]piperidin-1-yl}-carbonyl)piperidine-4-carbonitrile]
20 | 9.73 nM | CC(C)c1noc(C2CC(c3ccc(C(F)(F)F)cc3)CN(C(=O)N3CCC(C#N)CC3)C2)n1 (racemic) [Example 284, 1-({3-[3-(Propan-2-yl)-1,2,4-oxadiazol-5-yl]-5-[4-(trifluoromethyl)phenyl]piperidin-1-yl}-carbonyl)piperidine-4-carbonitrile]
21 | 4.16 nM | CN(C)Cc1nnc(C2CC(c3ccc(OC(F)(F)F)cc3)CN(C(=O)N3CCOCC3)C2)o1 (racemic) [Example 470, {3-{5-[(Dimethylamino)methyl]-1,3,4-oxadiazol-2-yl}-5-[4-(trifluoromethoxy)phenyl]piperidin-1-yl}(morpholin-4-yl)methanone]
22 | 3.51 nM | O=C(N1CCOCC1)N1CC(c2ccc(OC(F)(F)F)cc2)CC(c2nnc(-c3ccccc3)s2)C1 (racemic) [Example 495, Morpholin-4-yl{3-(5-phenyl-1,3,4-thiadiazol-2-yl)-5-[4-(trifluoromethoxy)phenyl]piperidin-1-yl}-methanone]
23 | 2.81 nM | Cc1cc(C2CC(c3nc(C4CC4)no3)CN(C(=O)N3CCC(O)CC3)C2)ccc1OC(F)(F)F (racemic) [Example 230, {3-(3-Cyclopropyl-1,2,4-oxadiazol-5-yl)-5-[3-methyl-4-(trifluoromethoxy)phenyl]piperidin-1-yl}(4-hydroxypiperidin-1-yl)methanone]

Source: US8119663B2, “Heteroaryl-substituted piperidines” (Bayer Pharma Aktiengesellschaft, priority 2007, dated 2012)
